Measurements as given in patent US5110904A (Abbott Laboratories, priority 1990, dated 1992).
Non-standard residues stand in square brackets, D forms with d. Residues, ends and D or L forms follow the SMILES beside them. *: point of attachment. dNMe1Nal = CN[C@H](Cc1cccc2ccccc12)C(=O)O; dPhe(4-Cl) = N[C@H](Cc1ccc(Cl)cc1)C(=O)O; 1Nal = N[C@@H](Cc1cccc2ccccc12)C(=O)O; d1Nal = N[C@H](Cc1cccc2ccccc12)C(=O)O; d2Nal = N[C@H](Cc1ccc2ccccc2c1)C(=O)O; Lys(iPr) = CC(C)NCCCC[C@H](N)C(=O)O; NMeY = CN[C@@H](Cc1ccc(O)cc1)C(=O)O; dBta = N[C@H](Cc1csc2ccccc12)C(=O)O; NMeF = CN[C@@H](Cc1ccccc1)C(=O)O; d3Pal = N[C@H](Cc1cccnc1)C(=O)O; Cha = N[C@@H](CC1CCCCC1)C(=O)O; d2Thi = N[C@H](Cc1cccs1)C(=O)O; NMeL = CN[C@@H](CC(C)C)C(=O)O; pGlu = O=C1CC[C@@H](C(=O)O)N1; Nicotinoyl = O=C(c1cccnc1)*; NMeS = CN[C@@H](CO)C(=O)O; Sar = CNCC(=O)O; For = O=C*

Target: T1, LHRH receptors (Rattus norvegicus, UniProt P30969)
T1 sequence (P30969 1-327): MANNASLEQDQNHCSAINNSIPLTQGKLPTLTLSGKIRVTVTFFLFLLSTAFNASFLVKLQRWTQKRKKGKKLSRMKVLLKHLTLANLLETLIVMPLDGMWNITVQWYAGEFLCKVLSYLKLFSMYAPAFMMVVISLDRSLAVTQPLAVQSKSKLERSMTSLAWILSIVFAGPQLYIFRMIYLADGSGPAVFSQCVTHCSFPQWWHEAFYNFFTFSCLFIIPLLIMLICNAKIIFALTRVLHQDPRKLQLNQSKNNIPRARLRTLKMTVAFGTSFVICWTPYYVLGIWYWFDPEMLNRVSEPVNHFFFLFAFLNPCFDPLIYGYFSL
Experiment: Radioligand receptor binding assay, rat pituitary membranes
Conditions: radioiodinated [D-Leu6-des Gly10]-LHRH ethyl amide 50 pM, 2 hours at 4° C., read-out: Receptor Binding pkI (converted)
Method: The radioligand (50 pM), receptors, and compounds to be tested are coincubated for 2 hours at 4° C. Bound ligand is separated from free ligand via centrifugation and aspiration.

CCNC(=O)[C@@H]1CCCN1C(=O)[C@H](CCCN=C(N)N)NC(=O)[C@H](CC(C)C)NC(=O)[C@@H](CC(C)C)NC(=O)[C@H](Cc1ccc(O)cc1)NC(=O)[C@H](CO)N(C)C(=O)[C@H](Cc1c[nH]c2ccccc12)NC(=O)[C@H](Cc1c[nH]cn1)NC(=O)[C@@H]1CCC(=O)N1 [Ex. 1, (pyro)Glu-His-Trp-N-Me-Ser-Tyr-D-Leu-Leu-Arg-Pro-NHEt] ([pGlu]HW[NMeS]Y[dL]LRP-NHEt)
Ki: 1.17 nM

CCNC(=O)[C@@H]1CCCN1C(=O)[C@H](CCCN=C(N)N)NC(=O)[C@H](CC(C)C)NC(=O)[C@@H](Cc1c[nH]c2ccccc12)NC(=O)[C@H](Cc1ccc(O)cc1)NC(=O)[C@H](CO)NC(=O)[C@H](Cc1c[nH]c2ccccc12)NC(=O)[C@H](Cc1ccccc1)N(C)C(=O)[C@@H]1CCC(=O)N1 [Ex. 19, (pyro)Glu-N-Me-Phe-Trp-Ser-Tyr-D-Trp-Leu-Arg-ProNHEt] ([pGlu][NMeF]WSY[dW]LRP-NHEt)
Ki: 0.038 nM

CCNC(=O)[C@@H]1CCCN1C(=O)[C@H](CCCN=C(N)N)N(C)C(=O)[C@H](CC(C)C)NC(=O)[C@@H](Cc1c[nH]c2ccccc12)NC(=O)[C@H](Cc1ccc(O)cc1)NC(=O)[C@H](CO)NC(=O)[C@H](Cc1c[nH]c2ccccc12)NC(=O)[C@H](Cc1cnc[nH]1)NC(=O)[C@@H]1CCC(=O)N1 [Ex. 23, (pyro)Glu-His-Trp-Ser-Tyr-D-Trp-Leu-N-Me-Arg-ProNHEt]
Ki: 0.0562 nM

CC(=O)N[C@H](Cc1ccc(Cl)cc1)C(=O)N[C@H](Cc1ccc(Cl)cc1)C(=O)N[C@H](Cc1cccs1)C(=O)N[C@@H](CO)C(=O)N(C)[C@@H](Cc1ccc(O)cc1)C(=O)N[C@H](CCCCN)C(=O)N[C@@H](CC(C)C)C(=O)N[C@@H](CCCNC(=N)N)C(=O)N1CCC[C@H]1C(=O)N[C@H](C)C(N)=O [Ex. 39, N-Ac-D-4-Cl-Phe-D-4-Cl-Phe-D-2-Thia-Ser-N-Me-Tyr-D-Lys-Leu-Arg-Pro-D-AlaNH2] (Ac-[dPhe(4-Cl)][dPhe(4-Cl)][d2Thi]S[NMeY][dK]LRP[dA]-NH2)
Ki: 0.0355 nM

CC(=O)NCC(=O)N[C@H](Cc1ccc(Cl)cc1)C(=O)N[C@H](Cc1cccnc1)C(=O)N[C@@H](CO)C(=O)N(C)[C@@H](Cc1ccc(O)cc1)C(=O)N[C@H](CCCCNC(=O)c1cccnc1)C(=O)N[C@@H](CC(C)C)C(=O)N[C@@H](CCCCNC(C)C)C(=O)N1CCC[C@H]1C(=O)N[C@H](C)C(N)=O [Ex. 42, N-Ac-Gly-D-4-Cl-Phe-D-3-Pal-Ser-N-Me-Tyr-D-Lys-(N-epsilon-nicotinyl)-Leu-Lys(N-epsilon-isopropyl)-Pro-D-AlaNH2] (Ac-G[dPhe(4-Cl)][d3Pal]S[NMeY][dK](Nicotinoyl)L[Lys(iPr)]P[dA]-NH2)
Ki: 0.603 nM

CC(=O)N[C@H](Cc1ccc(Cl)cc1)C(=O)N[C@H](Cc1ccc(Cl)cc1)C(=O)N[C@H](Cc1cccs1)C(=O)N[C@@H](CO)C(=O)N(C)[C@@H](Cc1ccc(O)cc1)C(=O)N[C@H](CCCCN)C(=O)N(C)[C@@H](CC(C)C)C(=O)N[C@@H](CCCNC(=N)N)C(=O)N1CCC[C@H]1C(=O)N[C@H](C)C(N)=O [Ex. 45, N-Ac-D-4-Cl-Phe-D-4-Cl-Phe-D-2-Thia-Ser-N-Me-Tyr-D-Lys-N-Me-Leu-Arg-Pro-D-AlaNH4] (Ac-[dPhe(4-Cl)][dPhe(4-Cl)][d2Thi]S[NMeY][dK][NMeL]RP[dA]-NH2)
Ki: 0.0138 nM

CC(=O)N[C@H](Cc1ccc(Cl)cc1)C(=O)N[C@H](Cc1ccc(Cl)cc1)C(=O)N[C@H](Cc1cccc2ccccc12)C(=O)N[C@@H](CO)C(=O)N(C)[C@@H](Cc1ccc(O)cc1)C(=O)N[C@H](CCCCN)C(=O)N[C@@H](CC1CCCCC1)C(=O)N[C@@H](CCCNC(=N)N)C(=O)N1CCC[C@H]1C(=O)N[C@H](C)C(N)=O [Ex. 47, N-Ac-D-4-Cl-Phe-D-4-Cl-Phe-D-1-Nal-Ser-N-Me-Tyr-D-Lys-Cha-Arg-Pro-D-AlaNH2] (Ac-[dPhe(4-Cl)][dPhe(4-Cl)][d1Nal]S[NMeY][dK][Cha]RP[dA]-NH2)
Ki: 0.038 nM

CC(=O)N(C)CC(=O)N[C@H](Cc1ccc(Cl)cc1)C(=O)N[C@H](Cc1cccc2ccccc12)C(=O)N[C@@H](CO)C(=O)N(C)[C@@H](Cc1ccc(O)cc1)C(=O)N[C@H](CCCCN)C(=O)N[C@@H](CC(C)C)C(=O)N[C@@H](CCCNC(=N)N)C(=O)N1CCC[C@H]1C(=O)N[C@H](C)C(N)=O [Ex. 48, N-Ac-Sar-D-4-Cl-Phe-D-1-Nal-Ser-N-Me-Tyr-D-Lys-Leu-Arg-Pro-D-AlaNH2] (Ac-[Sar][dPhe(4-Cl)][d1Nal]S[NMeY][dK]LRP[dA]-NH2)
Ki: 0.01 nM

CC(=O)N(C)CC(=O)N[C@H](Cc1ccc(Cl)cc1)C(=O)N[C@H](Cc1cccs1)C(=O)N[C@@H](CO)C(=O)N(C)[C@@H](Cc1ccc(O)cc1)C(=O)N[C@H](CCCCN)C(=O)N[C@@H](CC(C)C)C(=O)N[C@@H](CCCNC(=N)N)C(=O)N1CCC[C@H]1C(=O)N[C@H](C)C(N)=O [Ex. 49, N-Ac-Sar-D-4-Cl-Phe-D-2-Thia-Ser-N-Me-Tyr-D-Lys-Leu-Arg-Pro-D-AlaNH2] (Ac-[Sar][dPhe(4-Cl)][d2Thi]S[NMeY][dK]LRP[dA]-NH2)
Ki: 0.0316 nM

CC(=O)N(C)CC(=O)N[C@H](Cc1ccc(Cl)cc1)C(=O)N[C@H](Cc1cccc2ccccc12)C(=O)N[C@@H](CO)C(=O)N(C)[C@@H](Cc1ccc(O)cc1)C(=O)N[C@H](Cc1cccnc1)C(=O)N[C@@H](CC(C)C)C(=O)N[C@@H](CCCNC(=N)N)C(=O)N1CCC[C@H]1C(=O)N[C@H](C)C(N)=O [Ex. 50, N-Ac-Sar-D-4-Cl-Phe-D-1-Nal-Ser-N-Me-Tyr-D-3-Pal-Leu-Arg-Pro-D-AlaNH4] (Ac-[Sar][dPhe(4-Cl)][d1Nal]S[NMeY][d3Pal]LRP[dA]-NH2)
Ki: 0.0138 nM

CC(=O)N(C)CC(=O)N[C@H](Cc1ccc(Cl)cc1)C(=O)N[C@H](Cc1cccc2ccccc12)C(=O)N[C@@H](CO)C(=O)N(C)[C@@H](Cc1ccc(O)cc1)C(=O)N[C@H](CCCCNC(=O)c1cccnc1)C(=O)N[C@@H](CC(C)C)C(=O)N[C@@H](CCCNC(=N)N)C(=O)N1CCC[C@H]1C(=O)N[C@H](C)C(N)=O [Ex. 51, N-Ac-Sar-D-4-Cl-Phe-D-1-Nal-Ser-N-Me-Tyr-D-Tys(N-epsilon-nicotinyl)-Leu-Arg-Pro-D-AlaNH2] (Ac-[Sar][dPhe(4-Cl)][d1Nal]S[NMeY][dK](Nicotinoyl)LRP[dA]-NH2)
Ki: 0.0269 nM

CC(=O)N(C)CC(=O)N[C@H](Cc1ccc(Cl)cc1)C(=O)N[C@@H](Cc1cccc2ccccc12)C(=O)N[C@@H](CO)C(=O)N(C)[C@@H](Cc1ccc(O)cc1)C(=O)N[C@H](CCCCN)C(=O)N[C@@H](CC(C)C)C(=O)N[C@@H](CCCNC(=N)N)C(=O)N1CCC[C@H]1C(=O)N[C@H](C)C(N)=O [Ex. 52, N-Ac-Sar-D-4-Cl-Phe-1-Nal-Ser-N-Me-Tyr-D-Lys-Leu-Arg-Pro-D-AlaNH4] (Ac-[Sar][dPhe(4-Cl)][1Nal]S[NMeY][dK]LRP[dA]-NH2)
Ki: 0.017 nM

CC(=O)NCC(=O)N[C@H](Cc1ccc(Cl)cc1)C(=O)N[C@H](Cc1cccc2ccccc12)C(=O)N[C@@H](CO)C(=O)N(C)[C@@H](Cc1ccc(O)cc1)C(=O)N[C@H](CCCCN)C(=O)N[C@@H](CC(C)C)C(=O)N[C@@H](CCCNC(=N)N)C(=O)N1CCC[C@H]1C(=O)N[C@H](C)C(N)=O [Ex. 53, N-Ac-Gly-D-4-Cl-Phe-D-1-Nal-Ser-N-Me-Tyr-D-Lys-Leu-Arg-Pro-D-AlaNH2] (Ac-G[dPhe(4-Cl)][d1Nal]S[NMeY][dK]LRP[dA]-NH2)
Ki: 0.0132 nM

CC(=O)N[C@H](Cc1ccc(Cl)cc1)C(=O)N[C@H](Cc1ccc(Cl)cc1)C(=O)N[C@H](Cc1csc2ccccc12)C(=O)N[C@@H](CO)C(=O)N(C)[C@@H](Cc1ccc(O)cc1)C(=O)N[C@H](CCCCN)C(=O)N[C@@H](CC(C)C)C(=O)N[C@@H](CCCN=C(N)N)C(=O)N1CCC[C@H]1C(=O)N[C@H](C)C(N)=O [Ex. 54, N-Ac-D-4-Cl-Phe-D-4-Cl-Phe-D-3-Bal-Ser-N-Me-Tyr-D-Lys-Leu-Arg-Pro-D-AlaNH2] (Ac-[dPhe(4-Cl)][dPhe(4-Cl)][dBta]S[NMeY][dK]LRP[dA]-NH2)
Ki: 0.0339 nM

CC(=O)N[C@H](Cc1ccc(Cl)cc1)C(=O)N[C@H](Cc1ccc(Cl)cc1)C(=O)N[C@H](Cc1cn(C=O)c2ccccc12)C(=O)N[C@@H](CO)C(=O)N(C)[C@@H](Cc1ccc(O)cc1)C(=O)N[C@H](CCCCN)C(=O)N[C@@H](CC(C)C)C(=O)N[C@@H](CCCNC(=N)N)C(=O)N1CCC[C@H]1C(=O)N[C@H](C)C(N)=O [Ex. 55, N-Ac-D-4-Cl-Phe-D-4-Cl-Phe-D-Trp(formyl)-Ser-N-Me-Tyr-D-Lys-Leu-Arg-Pro-D-AlaNH2] (Ac-[dPhe(4-Cl)][dPhe(4-Cl)][dW](For)S[NMeY][dK]LRP[dA]-NH2)
Ki: 0.0219 nM

CC(=O)N[C@H](Cc1ccc(Cl)cc1)C(=O)N[C@H](Cc1ccc(Cl)cc1)C(=O)N(C)[C@H](Cc1cccc2ccccc12)C(=O)N[C@@H](CO)C(=O)N(C)[C@@H](Cc1ccc(O)cc1)C(=O)N[C@H](CCCCN)C(=O)N[C@@H](CC(C)C)C(=O)N[C@@H](CCCNC(=N)N)C(=O)N1CCC[C@H]1C(=O)N[C@H](C)C(N)=O [Ex. 56, N-Ac-D-4-Cl-Phe-D-4-Cl-Phe-N-Me-D-1-Nal-Ser-N-Me-Tyr-D-Lys-Leu-Arg-Pro-D-AlaNH2] (Ac-[dPhe(4-Cl)][dPhe(4-Cl)][dNMe1Nal]S[NMeY][dK]LRP[dA]-NH2)
Ki: 0.676 nM

CC(=O)N[C@H](Cc1ccc(Cl)cc1)C(=O)N[C@H](Cc1ccc(Cl)cc1)C(=O)N[C@H](Cc1ccc2ccccc2c1)C(=O)N[C@@H](CO)C(=O)N(C)[C@@H](Cc1ccc(O)cc1)C(=O)N[C@H](CCCCNC(=O)c1cccnc1)C(=O)N(C)[C@@H](CC(C)C)C(=O)N[C@@H](CCCNC(=N)N)C(=O)N1CCC[C@H]1C(=O)N[C@H](C)C(N)=O [Ex. 57, N-Ac-D-4-Cl-Phe-D-4-Cl-Phe-D-2-Nal-Ser-N-Me-Tyr-D-Lys(N-epsilon-nicotinyl)- N-Me-Leu-Arg-Pro-D-AlaNH2] (Ac-[dPhe(4-Cl)][dPhe(4-Cl)][d2Nal]S[NMeY][dK](Nicotinoyl)[NMeL]RP[dA]-NH2)
Ki: 0.372 nM
